Results reported in patent US20180099931A1 (AbbVie S.à.r.l., priority 2016, published 2018).
Like-named read-outs stand apart in the source and are kept apart here.

Biological target: T1, F508delCFTR (Homo sapiens, UniProt P13569, DEL508-508)
T1 construct: expressed in transfected cells; host or cells: CFBE41o- human lung-derived epithelial cells (CFBE4lo-F508delCFTR-HRP), doxycycline-inducible
Test: Cell Surface Expression-Horse Radish Peroxidase (CSE-HRP) Assay;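 on Maximum % activity (with co-corrector): co-corrector and positive control are both the same reference corrector at 2 µM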;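 on Maximum % activity (without co-corrector): percent of the 2 µM on-plate positive control corrector response above DMSO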
Format: cell-based
Conditions: for Maximum % activity (with co-corrector) / Emax: maximum at any tested concentration, normalized to on-plate positive control; for Emax: read-out: Maximum % activity (without co-corrector)

[1] = test compound without co-corrector
[2] = test compound without co-corrector, read-out: EC50 (without co-corrector)
[3] = with co-corrector (2 μM of 3-[(2R,4R)-4-({[1-(2,2-difluoro-1,3-benzodioxol-5-yl)cyclopropyl]carbonyl}amino)-7-methoxy-3,4-dihydro-2H-chromen-2-yl]benzoic acid)
[4] = with co-corrector (2 μM of 3-[(2R,4R)-4-({[1-(2,2-difluoro-1,3-benzodioxol-5-yl)cyclopropyl]carbonyl}amino)-7-methoxy-3,4-dihydro-2H-chromen-2-yl]benzoic acid), read-out: EC50 (with co-corrector)

T1 sequence (P13569 with tags, fused parts or gaps DEL508-508): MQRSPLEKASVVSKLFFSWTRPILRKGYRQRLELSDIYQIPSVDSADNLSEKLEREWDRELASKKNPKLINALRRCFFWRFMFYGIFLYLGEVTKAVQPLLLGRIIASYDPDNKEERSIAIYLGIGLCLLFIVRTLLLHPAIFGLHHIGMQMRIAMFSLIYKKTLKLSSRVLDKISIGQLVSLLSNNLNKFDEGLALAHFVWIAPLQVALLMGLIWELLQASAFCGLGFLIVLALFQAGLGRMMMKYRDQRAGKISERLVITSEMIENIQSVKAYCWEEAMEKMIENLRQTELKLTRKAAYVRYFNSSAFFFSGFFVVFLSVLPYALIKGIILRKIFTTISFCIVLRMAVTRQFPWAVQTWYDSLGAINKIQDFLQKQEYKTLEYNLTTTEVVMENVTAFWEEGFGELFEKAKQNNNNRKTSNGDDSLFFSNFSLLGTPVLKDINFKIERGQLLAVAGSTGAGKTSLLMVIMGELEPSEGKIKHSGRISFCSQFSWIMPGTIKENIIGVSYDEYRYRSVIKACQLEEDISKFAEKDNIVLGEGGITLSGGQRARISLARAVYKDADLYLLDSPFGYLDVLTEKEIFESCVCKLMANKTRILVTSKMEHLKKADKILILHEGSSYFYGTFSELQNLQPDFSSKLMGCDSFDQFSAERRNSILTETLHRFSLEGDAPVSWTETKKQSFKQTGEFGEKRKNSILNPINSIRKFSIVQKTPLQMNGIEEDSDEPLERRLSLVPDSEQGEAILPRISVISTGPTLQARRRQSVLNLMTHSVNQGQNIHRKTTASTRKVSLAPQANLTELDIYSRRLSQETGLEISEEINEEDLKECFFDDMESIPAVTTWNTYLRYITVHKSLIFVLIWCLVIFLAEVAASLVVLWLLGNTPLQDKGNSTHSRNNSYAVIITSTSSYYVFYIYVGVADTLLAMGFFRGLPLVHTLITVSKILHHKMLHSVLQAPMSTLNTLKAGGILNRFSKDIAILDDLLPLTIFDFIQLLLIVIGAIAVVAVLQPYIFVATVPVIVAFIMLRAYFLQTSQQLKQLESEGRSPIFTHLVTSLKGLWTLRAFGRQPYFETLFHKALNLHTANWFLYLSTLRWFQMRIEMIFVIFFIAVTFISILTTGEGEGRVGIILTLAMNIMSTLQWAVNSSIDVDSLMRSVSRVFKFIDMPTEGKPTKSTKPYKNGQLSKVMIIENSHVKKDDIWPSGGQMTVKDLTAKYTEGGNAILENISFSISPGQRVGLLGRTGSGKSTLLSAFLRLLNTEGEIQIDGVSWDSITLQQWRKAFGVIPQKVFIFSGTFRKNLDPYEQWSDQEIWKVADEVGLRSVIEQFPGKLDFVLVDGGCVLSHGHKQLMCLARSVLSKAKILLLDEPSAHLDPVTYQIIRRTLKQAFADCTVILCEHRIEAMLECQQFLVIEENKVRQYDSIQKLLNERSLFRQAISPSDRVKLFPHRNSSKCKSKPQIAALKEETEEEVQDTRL

Row | Compound | EC50 (CSE-HRP, test compound without co-corrector, read-out: EC50 (without co-corrector)) [nM] | EC50 (CSE-HRP, with co-corrector (2 μM of 3-[(2R,4R)-4-({[1-(2,2-difluoro-1,3-benzodioxol-5-yl)cyclopropyl]carbonyl}amino)-7-methoxy-3,4-dihydro-2H-chromen-2-yl]benzoic acid), read-out: EC50 (with co-corrector)) [nM] | Maximum % activity (with co-corrector) (CSE-HRP, with co-corrector (2 μM)) | Emax (CSE-HRP, without co-corrector) [%] | Emax [1] [%] | EC50 [2] [nM] | Maximum % activity (with co-corrector) [3] | EC50 [4] [nM] | Maximum % activity (with co-corrector) (with co-corrector (2 μM)) | Emax (without co-corrector) [%]
1 | COc1ccc(C(C)(C)C)cc1CN[C@H]1[C@H](C(C)(C)C)[C@@H](C(=O)O)N(C(=O)C(OC)C(C)(C)C)[C@H]1c1ccccc1 (relative stereo) [II-297] | 1000 to 10000 | 1000 to 10000 | +++ (≥350) | < 100 | – | – | – | – | – | –
2 | COc1ccc(C(C)(C)C)cc1CN[C@H]1[C@H](C(C)(C)C)[C@@H](C(=O)O)N(C(=O)[C@@H]2C[C@H]2c2ccccc2)[C@H]1c1ccccc1 (relative stereo) [II-339] | – | – | – | – | > 200 | 1000 to 10000 | +++ (≥350) | < 1000 | – | –
3 | COc1ncc(C(F)(F)F)cc1CN[C@H]1[C@H](C(C)(C)C)[C@@H](C(=O)O)N(C(=O)[C@H]2CC[C@@H](c3ccccc3)O2)[C@H]1c1ccccc1 (relative stereo) [II-426] | – | – | – | – | < 100 | 1000 to 10000 | +++ (≥350) | < 1000 | – | –
4 | COc1nc(C(C)(C)C)ccc1CN[C@H]1[C@H](C(C)(C)C)[C@@H](C(=O)O)N(C(=O)[C@@H]2OC[C@@H]3CCC[C@@H]32)[C@H]1c1ccccc1 (relative stereo) [II-431] | – | – | – | – | 100 to 200 | < 1000 | +++ (≥350) | < 1000 | – | –
5 | COc1nc(C(C)(C)C)ccc1CN[C@H]1[C@H](C(C)(C)C)[C@@H](C(=O)O)N(C(=O)[C@H]2OC[C@H]3CCC[C@H]32)[C@H]1c1ccccc1 (relative stereo) [II-432] | – | – | – | – | < 100 | 1000 to 10000 | +++ (≥350) | 1000 to 10000 | – | –
6 | COc1ccc(C(C)(C)C)cc1CN[C@H]1[C@H](C(C)(C)C)[C@@H](C(=O)O)N(C(=O)[C@H]2CCC[C@H](OC)C2)[C@H]1c1cccnc1N(C)C (relative stereo) [II-448] | – | – | – | – | > 200 | 1000 to 10000 | +++ (≥350) | 1000 to 10000 | – | –
7 | COc1ccc(C(C)(C)C)cc1CN[C@H]1[C@H](C(C)(C)C)[C@@H](C(=O)O)N(C(=O)[C@@H]2CCC[C@@H](OC)C2)[C@H]1c1cccnc1N(C)C (relative stereo) [II-449] | – | – | – | – | > 200 | 1000 to 10000 | +++ (≥350) | < 1000 | – | –
8 | COc1ccc(C(C)(C)C)cc1CN[C@H]1[C@H](C(C)(C)C)[C@@H](C(=O)O)N(C(=O)[C@H](C)[C@@H]2CCCCO2)[C@H]1c1ccccc1 (relative stereo) [II-454] | – | – | – | – | 100 to 200 | 1000 to 10000 | +++ (≥350) | 1000 to 10000 | – | –
9 | COc1ccc(C(C)(C)C)cc1CN[C@H]1[C@H](C(C)(C)C)[C@@H](C(=O)O)N(C(=O)[C@@H](C)[C@H]2CCCCO2)[C@H]1c1ccccc1 (relative stereo) [II-455] | – | – | – | – | > 200 | 1000 to 10000 | +++ (≥350) | 1000 to 10000 | – | –
10 | COc1nc(C(C)(C)C)ccc1CN[C@H]1[C@H](C(C)(C)C)[C@@H](C(=O)O)N(C(=O)[C@H]2CCC[C@@H](OC)C2)[C@H]1c1ccccc1 (relative stereo) [II-456] | – | – | – | – | > 200 | 1000 to 10000 | +++ (≥350) | 1000 to 10000 | – | –
11 | COc1ccc(C(C)(C)C)cc1CN[C@H]1[C@H](C(C)(C)C)[C@@H](C(=O)O)N(C(=O)[C@@H]2[C@H](C(F)(F)F)[C@@H]3CC[C@H]2O3)[C@H]1c1cccnc1N(C)C (relative stereo) [II-473] | – | – | – | – | > 200 | 1000 to 10000 | +++ (≥350) | < 1000 | – | –
12 | COc1nc(C(C)(C)C)ncc1CN[C@H]1[C@H](C(C)(C)C)[C@@H](C(=O)O)N(C(=O)C2CCCC(F)(F)C2)[C@H]1c1ccccc1 (relative stereo) [II-477] | – | – | – | – | 100 to 200 | < 1000 | +++ (≥350) | 1000 to 10000 | – | –
13 | Cc1cc(C(F)(F)F)cc(N[C@H]2[C@H](C(C)(C)C)[C@@H](C(=O)O)N(C(=O)C3CCCCO3)[C@H]2c2cccnc2N(C)C)n1 (relative stereo) [II-504] | – | – | – | – | < 100 | 1000 to 10000 | ++ (≥150 and <350) | 1000 to 10000 | – | –
14 | COc1ccc(C(C)(C)C)cc1CN[C@H]1[C@H](C(C)(C)C)[C@@H](C(=O)O)N(C(=O)[C@@H]2[C@@H](C(F)(F)F)[C@@H]3CC[C@H]2O3)[C@H]1c1ccccc1 (relative stereo) [II-505] | – | – | – | – | > 200 | 1000 to 10000 | +++ (≥350) | < 1000 | – | –
15 | COc1ccc(C(C)(C)C)cc1CN[C@H]1[C@H](C(C)(C)C)[C@@H](C(=O)O)N(C(=O)[C@H]2[C@H](C(F)(F)F)[C@H]3CC[C@@H]2O3)[C@H]1c1ccccc1 (relative stereo) [II-506] | – | – | – | – | > 200 | 1000 to 10000 | +++ (≥350) | < 1000 | – | –
16 | COc1ccc(C(C)(C)C)cc1CN[C@H]1[C@H](C(C)(C)C)[C@@H](C(=O)O)N(C(=O)[C@@H]2[C@@H](C(F)(F)F)[C@@H]3CC[C@H]2O3)[C@H]1c1ccccc1OC(F)F (relative stereo) [II-507] | – | – | – | – | 100 to 200 | < 1000 | +++ (≥350) | < 1000 | – | –
17 | COc1ccc(C(C)(C)C)cc1CN[C@H]1[C@H](C(C)(C)C)[C@@H](C(=O)O)N(C(=O)[C@@H]2C[C@H]3CC[C@@H]2O3)[C@H]1c1cccnc1OC (relative stereo) [II-522] | – | – | – | – | < 100 | 1000 to 10000 | +++ (≥350) | 1000 to 10000 | – | –
18 | COc1cccc([C@H]2[C@@H](NCc3cc(C(F)(F)F)ccc3OC)[C@H](C(C)(C)C)[C@@H](C(=O)O)N2C(=O)C2(C)CCCOC2)n1 (relative stereo) [III-70] | – | – | – | – | < 100 | > 10000 | ++ (≥150 and <350) | 1000 to 10000 | – | –
19 | COc1ccc(C(F)(F)F)cc1CN[C@@H]1[C@@H](C(C)(C)C)[C@H](C(=O)O)N(C(=O)C(OC)c2ccccc2)[C@@H]1c1cccnc1N(C)C (relative stereo) [III-88] | – | – | – | – | < 100 | > 10000 | ++ (≥150 and <350) | 1000 to 10000 | – | –
20 | COc1ccc(C(C)(C)C)cc1CN[C@H]1[C@H](C(C)(C)C)[C@@H](C(=O)O)N(C(=O)C2Cc3ccccc3O2)[C@H]1c1ccccc1 (single isomer, unassigned) [Example 28, (2S,3S,4S,5S)-3-tert-butyl-4-{[(5-tert-butyl-2-methoxyphenyl)methyl]amino}-1-[(2S*)-2,3-dihydro-1-benzofuran-2-carbonyl]-5-phenylpyrrolidine-2-carboxylic acid] | – | – | – | – | – | < 1000 | – | < 1000 | +++ (≥350) | > 200
21 | COc1ccc(C(C)(C)C)cc1CN[C@H]1[C@H](C(C)(C)C)[C@@H](C(=O)O)N(C(=O)C2Cc3ccccc3O2)[C@H]1c1cccnc1N(C)C (single isomer, unassigned) [Example 36, (2S,3S,4S,5S)-3-tert-butyl-4-{[(5-tert-butyl-2-methoxyphenyl)methyl]amino}-1-[(2S*)-2,3-dihydro-1-benzofuran-2-carbonyl]-5-[2-(dimethylamino)pyridin-3-yl]pyrrolidine-2-carboxylic acid] | – | – | – | – | – | < 1000 | – | < 1000 | +++ (≥350) | 100 to 200
